Source: patent EP1025114B1, “3'-N-MODIFIED 6-O-SUBSTITUTED ERYTHROMYCIN KETOLIDE DERIVATIVES HAVING ANTIBACTERIAL ACTIVITY” (priority 1997, dated 1999)
Converted amounts (≈) assume the structure as drawn.

Experiments:
Experiment in all cases: In vitro antibacterial activity, agar dilution MIC
Format in all cases: cell-based
[1] = test system: Micrococcus luteus ATCC 9341; conditions: Micrococcus luteus ATCC 9341 (organism code OO); BHI agar, 35-37 °C, 20 to 24 hours; unit assumed
Procedure, shortened: (§1)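 Test compound was serially diluted in Brain Heart Infusion agar across twelve plates, and each plate was spot-inoculated by replicator with 1:100 culture dilutions (1:10 for slow growers such as Streptococcus). MIC was the lowest concentration giving no growth, slight haze or sparsely isolated colonies relative to a drug-free growth control.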

[2] = test system: Nocardia Asteroides ATCC9970; conditions: Nocardia Asteroides ATCC9970 (organism code VV); BHI agar, 35-37 °C, 20 to 24 hours; unit assumed
Procedure, shortened: as §1

[3] = test system: Streptococcus Pheumoniae 5649; conditions: Streptococcus Pheumoniae 5649 (organism code ZZA); BHI agar, 35-37 °C, 20 to 24 hours; unit assumed
Procedure, shortened: as §1

[4] = test system: Streptococcus Pheumoniae GYR 1171; conditions: Streptococcus Pheumoniae GYR 1171 (organism code YY); BHI agar, 35-37 °C, 20 to 24 hours; unit assumed
Procedure, shortened: as §1

[5] = test system: Streptococcus agalactiae CMX 508; conditions: Streptococcus agalactiae CMX 508 (organism code KK); BHI agar, 35-37 °C, 20 to 24 hours; unit assumed
Procedure, shortened: as §1

[6] = test system: Staphylococcus aureus 1775; conditions: Staphylococcus aureus 1775 (organism code GG); BHI agar, 35-37 °C, 20 to 24 hours; unit assumed
Procedure, shortened: as §1

[7] = test system: Streptococcus bovis A-5169; conditions: Streptococcus bovis A-5169 (organism code JJ); BHI agar, 35-37 °C, 20 to 24 hours; unit assumed
Procedure, shortened: as §1

[8] = test system: Haemophilis Influenzae DILL AMP R; conditions: Haemophilis Influenzae DILL AMP R (organism code WW); BHI agar, 35-37 °C, 20 to 24 hours; unit assumed
Procedure, shortened: as §1

Escherichia coli JUHL = Escherichia coli JUHL (organism code QQ); BHI agar, 35-37 °C, 20 to 24 hours; unit assumed
Procedure, shortened: as §1

[9] = test system: Staphylococcus aureus NCTC10649M; conditions: Staphylococcus aureus NCTC10649M (organism code EE); BHI agar, 35-37 °C, 20 to 24 hours; unit assumed
Procedure, shortened: as §1

[10] = test system: Streptococcus Pheumoniae ATCC6303; conditions: Streptococcus Pheumoniae ATCC6303 (organism code XX); BHI agar, 35-37 °C, 20 to 24 hours; unit assumed
Procedure, shortened: as §1

[11] = test system: Staphylococcus epidermidis 3519; conditions: Staphylococcus epidermidis 3519 (organism code HH); BHI agar, 35-37 °C, 20 to 24 hours; unit assumed
Procedure, shortened: as §1

[12] = test system: Streptococcus Pheumoniae 5979; conditions: Streptococcus Pheumoniae 5979 (organism code ZZ); BHI agar, 35-37 °C, 20 to 24 hours; unit assumed
Procedure, shortened: as §1

[13] = test system: Mycobacterium smegmatis ATCC 114; conditions: Mycobacterium smegmatis ATCC 114 (organism code UU); BHI agar, 35-37 °C, 20 to 24 hours; unit assumed
Procedure, shortened: as §1

Escherichia coli DC-2 = Escherichia coli DC-2 (organism code SS); BHI agar, 35-37 °C, 20 to 24 hours; unit assumed
Procedure, shortened: as §1

[14] = test system: Staphylococcus aureus ATCC 6538P; conditions: Staphylococcus aureus ATCC 6538P (organism code AA); BHI agar, 35-37 °C, 20 to 24 hours; unit assumed
Procedure, shortened: as §1

[15] = test system: Staphylococcus aureus CMX 642A; conditions: Staphylococcus aureus CMX 642A (organism code DD); BHI agar, 35-37 °C, 20 to 24 hours; unit assumed
Procedure, shortened: as §1

[16] = test system: Streptococcus pyogenes EES61; conditions: Streptococcus pyogenes EES61 (organism code LL); BHI agar, 35-37 °C, 20 to 24 hours; unit assumed
Procedure, shortened: as §1

[17] = test system: Micrococcus luteus ATCC 4698; conditions: Micrococcus luteus ATCC 4698 (organism code PP); BHI agar, 35-37 °C, 20 to 24 hours; unit assumed
Procedure, shortened: as §1

[18] = test system: Staphylococcus aureus CMX 553; conditions: Staphylococcus aureus CMX 553 (organism code FF); BHI agar, 35-37 °C, 20 to 24 hours; unit assumed
Procedure, shortened: as §1

Candida albicans CCH 442 = Candida albicans CCH 442 (organism code TT); BHI agar, 35-37 °C, 20 to 24 hours; unit assumed
Procedure, shortened: as §1

[19] = test system: Staphylococcus aureus A-5278; conditions: Staphylococcus aureus A-5278 (organism code CC); BHI agar, 35-37 °C, 20 to 24 hours; unit assumed
Procedure, shortened: as §1

Escherichia coli SS = Escherichia coli SS (organism code RR); BHI agar, 35-37 °C, 20 to 24 hours; unit assumed
Procedure, shortened: as §1

[20] = test system: Staphylococcus aureus A5177; conditions: Staphylococcus aureus A5177 (organism code BB); BHI agar, 35-37 °C, 20 to 24 hours; unit assumed
Procedure, shortened: as §1

[21] = test system: Enterococcus faecium ATCC 8043; conditions: Enterococcus faecium ATCC 8043 (organism code II); BHI agar, 35-37 °C, 20 to 24 hours; unit assumed
Procedure, shortened: as §1

[22] = test system: Streptococcus pyogenes 930; conditions: Streptococcus pyogenes 930 (organism code MM); BHI agar, 35-37 °C, 20 to 24 hours; unit assumed
Procedure, shortened: as §1

[23] = test system: Streptococcus pyogenes PIU 2548; conditions: Streptococcus pyogenes PIU 2548 (organism code NN); BHI agar, 35-37 °C, 20 to 24 hours; unit assumed
Procedure, shortened: as §1

Row | Structure (SMILES) | MIC [1] [µg/mL] | MIC [2] [µg/mL] | MIC [3] [µg/mL] | MIC [4] [µg/mL] | MIC [5] [µg/mL] | MIC [6] [µg/mL] | MIC [7] [µg/mL] | MIC [8] [µg/mL] | MIC (Escherichia coli JUHL) [µg/mL] | MIC [9] [µg/mL] | MIC [10] [µg/mL] | MIC [11] [µg/mL] | MIC [12] [µg/mL] | MIC [13] [µg/mL] | MIC (Escherichia coli DC-2) [µg/mL] | MIC [14] [µg/mL] | MIC [15] [µg/mL] | MIC [16] [µg/mL] | MIC [17] [µg/mL] | MIC [18] [µg/mL] | also measured
1 | CC[C@H]1OC(=O)[C@H](C)C(=O)[C@H](C)[C@@H](O[C@@H]2O[C@H](C)C[C@H](NC)[C@H]2O)[C@](C)(OCC=Cc2cnc3ccccc3c2)C[C@@H](C)C(=O)[C@H](C)[C@H]2NC(=O)O[C@@]21C [Example 3, Compound of Formula (II); R is -CH2CH=CH-(3-quinolyl), R^p is H, W is absent, R^w is H, R^1 is H, R^2 is CH3-] | 0.02 | 3.1 | 0.5 | 0.03 | 0.02 | > 100 | 0.01 | 16 | > 100 | 0.39 | 0.03 | 0.39 | > 128 | 12.5 | > 100 | 0.2 | 0.39 | 0.01 | 0.1 | 0.39 | MIC (Candida albicans CCH 442): > 100 µg/mL; MIC [19]: > 100 µg/mL; MIC (Escherichia coli SS): 0.78 µg/mL; MIC [20]: 0.2 µg/mL; MIC [21]: 0.2 µg/mL; MIC [22]: 12.5 µg/mL; MIC [23]: 0.39 µg/mL
2 | CC[C@H]1OC(=O)[C@H](C)C(=O)[C@H](C)[C@@H](O[C@@H]2O[C@H](C)C[C@H](N(C)Cc3ccccc3)[C@H]2O)[C@](C)(OCC=Cc2cnc3ccccc3c2)C[C@@H](C)C(=O)[C@H](C)[C@H]2NC(=O)O[C@@]21C [Example 8] | 0.05 (≈ 0.0594 µM) | 0.2 (≈ 0.238 µM) | 0.5 (≈ 0.594 µM) | 0.03 (≈ 0.0356 µM) | 0.02 (≈ 0.0238 µM) | > 100 | 0.02 (≈ 0.0238 µM) | 4 (≈ 4.75 µM) | > 100 | 0.2 (≈ 0.238 µM) | 0.03 (≈ 0.0356 µM) | 0.2 (≈ 0.238 µM) | > 128 | 0.39 (≈ 0.463 µM) | > 100 | 0.2 (≈ 0.238 µM) | 0.2 (≈ 0.238 µM) | 0.02 (≈ 0.0238 µM) | 0.05 (≈ 0.0594 µM) | 0.2 (≈ 0.238 µM) | MIC (Candida albicans CCH 442): > 100 µg/mL; MIC [19]: > 100 µg/mL; MIC (Escherichia coli SS): 0.78 µg/mL (≈ 0.926 µM); MIC [20]: 0.2 µg/mL (≈ 0.238 µM); MIC [21]: 0.1 µg/mL (≈ 0.119 µM); MIC [22]: > 100 µg/mL; MIC [23]: 0.2 µg/mL (≈ 0.238 µM)
